Source: patent publication US20090099167A1, “Organic compounds” (Novartis Institutes for Biomedical Research, priority 2004, published 2009)

What was measured:
[1] = target: T1, human EphB4 receptor (Homo sapiens, UniProt P54760); test: EphB4 kinase assay, GST-EphB, 33P incorporation into poly(Glu,Tyr); type: biochemical; conditions: Table 5; read-out: EphB4, IC50 class
T1 construct: made in house; host or cells: Sf9 or Sf21 (baculovirus)
T1 sequence (P54760 566-987): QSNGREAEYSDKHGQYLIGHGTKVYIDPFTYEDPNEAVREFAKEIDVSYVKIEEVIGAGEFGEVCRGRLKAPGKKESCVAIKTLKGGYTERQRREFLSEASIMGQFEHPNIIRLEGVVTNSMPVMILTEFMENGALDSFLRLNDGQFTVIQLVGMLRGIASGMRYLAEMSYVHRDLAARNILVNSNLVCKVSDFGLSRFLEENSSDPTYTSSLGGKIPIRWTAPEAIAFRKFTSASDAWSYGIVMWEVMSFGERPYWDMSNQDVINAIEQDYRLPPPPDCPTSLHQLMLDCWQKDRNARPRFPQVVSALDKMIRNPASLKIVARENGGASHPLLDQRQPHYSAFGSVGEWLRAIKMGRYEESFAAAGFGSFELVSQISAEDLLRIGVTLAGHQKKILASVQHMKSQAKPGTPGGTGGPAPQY
Source text: EphB4: Production and measure of enzymatic activity: Generation of Bac-to-Bac™ (Initrogen Life Technologies, Basel, Switzerland) GST-fusion expression vectors: Entire cytoplasmatic coding regions of the EphB-class are amplified by PCR from cDNA libraries derived from human placenta or brain, respectively. Recombinant baculovirus are generated that express the amino acid region 566-987 of the human EphB4 receptor (SwissProt Database, Accession No. P54760). GST sequence is cloned into pFastBac1® vector (Invitrogen Life Technologies, Basel, Switzerland) and PCR amplified. cDNAs encoding EphB4-receptor domains, respectively, are cloned in frame 3′prime to the GST sequence into this modified FastBac1 vector to generate pBac-to-Bac™ donor vectors. Single colonies arising from the transformation are inoculated to give overnight cultures for small scale plasmid preparation. […] By automated sequencing the inserts and approximately 50 bp of the flanking vector sequences are confirmed on both strands. Production of viruses: Viruses for each of the kinases are made according to the protocol supplied by GIBCO if not stated otherwise. In brief, transfer vectors containing the kinase domains are transfected into the DH10Bac cell line (GIBCO) and plated on selective agar plates. Colonies without insertion of the fusion sequence into the viral genome (carried by the bacteria) are blue. Single white colonies are picked and viral DNA (bacmid) isolated from the bacteria by standard plasmid purification procedures. Sf9 cells or Sf21 cells are then transfected in 25 cm2 flasks with the viral DNA using Cellfectin reagent according to the protocol. Purification of GST-tagged kinases: The centrifuged cell lysate is loaded onto a 2 mL glutathione-sepharose column (Pharmacia) and washed three times with 10 mL of 25 mM Tris-HCl, pH 7.5, 2 mM EDTA, 1 mM DTT, 200 mM NaCl. The GST-tagged proteins are then eluted by 10 applications (1 mL each) of 25 mM Tris-HCl, pH 7.5, 10 mM reduced-glutathione, 100 mM NaCl, 1 mM DTT, 10% Glycerol and stored at −70° C. Protein kinase assays: The activities of protein kinases are assayed in the presence or absence of inhibitors, by measuring the incorporation of 33P from [γ33P]ATP into a polymer of glutamic acid and tyrosine (poly(Glu,Tyr)) as a substrate. The kinase assays with purified GST-EphB (30 ng) are carried out for 15-30 min at ambient temperature in a final volume of 30 μL containing 20 mM Tris.HCl, pH 7.5, 10 mM MgCl2, 3-50 mM MnCl2, 0.01 mM Na3VO4, 1% DMSO, 1 mM DTT, 3 μg/mL poly(Glu,Tyr) 4:1 (Sigma; St. Louis, Mo., USA) and 2.0-3.0 μM ATP (γ-[33P]-ATP 0.1 μCi). The assay is terminated by the addition of 20 μL of 125 mM EDTA. Subsequently, 40 μl of the reaction mixture are transferred onto Immobilon-PVDF membrane (Millipore, Bedford, Mass., USA) previously soaked for 5 min with methanol, rinsed with water, then soaked for 5 min with 0.5% H3PO4 and mounted on vacuum manifold with disconnected vacuum source. After spotting all samples, vacuum is connected and each well rinsed with 200 μl 0.5% H3PO4. Membranes are removed and washed 4× on a shaker with 1.0% H3PO4, once with ethanol. Membranes are counted after drying at ambient temperature, mounting in Packard TopCount96-well frame, and addition of 10 μL/well of Microscint™ (Packard). IC50 values are calculated by linear regression analysis of the percentage inhibition of each compound in duplicate, at four concentrations (usually 0.01, 0.1, 1 and 10 μM). One unit of protein kinase activity is defined as 1 nmole of 33P ATP transferred from [γ33P] ATP to the substrate protein per minute per mg of protein at 37° C. Compounds of formula I show EphB4 inhibition down to 10 nM, preferably IC50 values between 0.01-1.0 μM.

Row | IC50 [1] | melting point | SMILES
1 | < 1000 nM | 110 to 115 °C | Cc1nc2c(-c3cccc(N4CCN(C)CC4)c3)cnn2c(N)c1-c1cccc(Cl)c1 [Example 72, 6-(3-Chloro-phenyl)-5-methyl-3-[3-(4-methyl-piperazin-1-yl)-phenyl]-pyrazolo[1,5-a]pyrimidin-7-ylamine]
2 | < 1000 nM | 104 to 107 °C | Cc1nc2c(-c3cccc(N4CCN(CCO)CC4)c3)cnn2c(N)c1-c1ccc(F)c(Cl)c1 [Example 100, 2-(4-{3-[7-Amino-6-(3-chloro-4-fluoro-phenyl)-5-methyl-pyrazolo[1,5-a]pyrimidin-3-yl]-phenyl}-piperazin-1-yl)-ethanol]
3 | < 1000 nM | 209 to 212 °C | Cc1nc2c(-c3cccc(N4CCN(CCO)CC4)c3)cnn2c(N)c1-c1ccc(F)cc1 [Example 97, 2-(4-{3-[7-Amino-6-(4-fluoro-phenyl)-5-methyl-pyrazolo[1,5-a]pyrimidin-3-yl]-phenyl}-piperazin-1-yl)-ethanol]
4 | < 1000 nM | 113 to 115 °C | Cc1nc2c(-c3ccc(N4CCN(C)CC4)cc3)cnn2c(N)c1-c1cccc(Cl)c1 [Example 73, 6-(3-Chloro-phenyl)-5-methyl-3-[4-(4-methyl-piperazin-1-yl)-phenyl]-pyrazolo[1,5-a]pyrimidin-7-ylamine]
5 | < 1000 nM | 230 to 235 °C | COc1ccc(-c2cnn3c(N)c(-c4ccc(F)c(F)c4)c(C)nc23)cc1OC [Example 99, 6-(3,4-Difluoro-phenyl)-3-(3,4-dimethoxy-phenyl)-5-methyl-pyrazolo[1,5-a]pyrimidin-7-ylamine]
6 | < 1000 nM | 264 to 265 °C | Cc1nc2c(-c3ccc(N4CCN(C)CC4)cc3)cnn2c(N)c1-c1ccc(F)c(Cl)c1 [Example 83, 6-(3-Chloro-4-fluoro-phenyl)-5-methyl-3-[4-(4-methyl-piperazin-1-yl)-phenyl]-pyrazolo[1,5-a]pyrimidin-7-ylamine]
7 | < 1000 nM | 200 to 203 °C | CN1CCN(c2cccc(-c3cnn4c(N)c(-c5ccccc5Cl)cnc34)c2)CC1 [Example 78, 6-(2-Chloro-phenyl)-3-[3-(4-methyl-piperazin-1-yl)-phenyl]-pyrazolo[1,5-a]pyrimidin-7-ylamine]
8 | < 1000 nM | 180 to 185 °C | Cc1nc2c(-c3cccc(N4CCN(C5CCN(C)CC5)CC4)c3)cnn2c(N)c1-c1cccc(Cl)c1 [Example 81, 6-(3-Chloro-phenyl)-5-methyl-3-{3-[4-(1-methyl-piperidin-4-yl)-piperazin-1-yl]-phenyl}-pyrazolo[1,5-a]pyrimidin-7-ylamine]
9 | < 1000 nM | 244 to 249 °C | Cc1nc2c(-c3cccc(N4CCC(N5CCCC5)CC4)c3)cnn2c(N)c1-c1ccc(F)cc1 [Example 103, 6-(4-Fluoro-phenyl)-5-methyl-3-[3-(4-pyrrolidin-1-yl-piperidin-1-yl)-phenyl]-pyrazolo[1,5-a]pyrimidin-7-ylamine]
10 | < 1000 nM | 107 to 113 °C | Cc1nc2c(-c3cccc(N4CCN(C)CC4)c3)cnn2c(N)c1-c1cccc(Br)c1 [Example 84, 6-(3-Bromo-phenyl)-5-methyl-3-[3-(4-methyl-piperazin-1-yl)-phenyl]-pyrazolo[1,5-a]pyrimidin-7-ylamine]
11 | < 1000 nM | 223 to 226 °C | COc1ccc(-c2cnn3c(N)c(-c4cccc(Cl)c4)c(C)nc23)cc1OC [Example 93, 6-(3-Chloro-phenyl)-3-(3,4-dimethoxy-phenyl)-5-methyl-pyrazolo[1,5-a]pyrimidin-7-ylamine]
12 | < 1000 nM | 216 to 219 °C | Cc1nc2c(-c3cccc(N4CCN(C)CC4)c3)cnn2c(N)c1-c1ccc(F)c(F)c1 [Example 98, 6-(3,4-Difluoro-phenyl)-5-methyl-3-[3-(4-methyl-piperazin-1-yl)-phenyl]-pyrazolo[1,5-a]pyrimidin-7-ylamine]
